Test results taken from ChEMBL document CHEMBL1201862, “PubChem BioAssay data set” (2004).
Calls of active or inactive are those of the source.

Assays:
Cytochrome P450 2C9 = Cytochrome P450 2C9 (Homo sapiens, UniProt P11712)
[1] = molecular target: T1, Microphthalmia-associated transcription factor (Homo sapiens, UniProt O75030); assay: reducers of TRPM1 reporter luminescence, concentration series – cell-based, SK-MEL-5, cherry-picked, set 3, MITF inhibitor project, dose response (AID 493073); format: functional;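 also: SK-MEL-5 melanoma cells with luciferase driven by the MITF target TRPM1 promoter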
T1 sequence (O75030 whole entry): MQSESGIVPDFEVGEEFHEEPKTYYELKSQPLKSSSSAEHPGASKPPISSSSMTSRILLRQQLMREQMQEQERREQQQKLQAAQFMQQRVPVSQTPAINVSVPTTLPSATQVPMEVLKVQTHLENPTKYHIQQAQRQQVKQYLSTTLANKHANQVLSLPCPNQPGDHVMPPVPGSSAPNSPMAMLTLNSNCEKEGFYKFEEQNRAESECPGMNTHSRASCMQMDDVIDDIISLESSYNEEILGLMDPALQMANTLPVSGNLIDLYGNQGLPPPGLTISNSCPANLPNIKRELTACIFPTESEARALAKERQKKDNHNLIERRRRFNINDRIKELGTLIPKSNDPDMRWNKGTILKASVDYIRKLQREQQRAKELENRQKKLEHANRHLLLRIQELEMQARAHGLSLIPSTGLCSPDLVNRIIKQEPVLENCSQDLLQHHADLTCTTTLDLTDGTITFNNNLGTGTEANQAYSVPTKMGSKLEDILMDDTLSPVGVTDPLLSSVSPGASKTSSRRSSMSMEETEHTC

[2] = molecular target: Neurotensin receptor type 1 (Homo sapiens, UniProt P30989); format: functional;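 also: Image-based confirmatory dose-response assay measuring agonist activity at NTR1; NTR1-expressing U2OS osteosarcoma cells imaged for beta-arrestin GFP spot formation; agonist potency where compounds increase beta-arrestin recruitment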
[3] = Luminescent dose response cell-based high throughput screening assay for inhibitors of the Janus kinase 2 mutant JAK2V617F. [Related pubchem assays: 1446 (Primary screen.), 1521 (Confirmation assay.), 1486 (Counter screen.)]; format: functional
[4] = molecular target: Eukaryotic translation initiation factor 4E (Mus musculus, UniProt P63073); assay: blockers of eIF4G binding by eIF4E – biochemical, TR-FRET, dose response (AID 855); format: functional;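 also: potency for disrupting eIF4E binding to eIF4GI seen as loss of FRET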
[5] = molecular target: Cystic fibrosis transmembrane conductance regulator/Golgi-associated PDZ and coiled-coil motif-containing protein (Homo sapiens, UniProt P13569+Q9HD26); assay: potency against CAL PDZ-peptide interaction – biochemical, fluorescence polarization, Cerulean-tagged CAL PDZ, cherry-picks, dose response (AID 504773)
Nonstructural protein 1 = Nonstructural protein 1 (Influenza A virus, UniProt Q194T2); format: functional, Influenza A virus (A/California/07/2009(H1N1))
HeLa = assay: viability loss in HeLa cells – cell-based, 24 h, cherry-picked samples, cytotoxicity control, dose response (AID 504726); format: functional; conditions: Homo sapiens;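 also: potency for cytotoxicity as loss of luminescence signal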
ORF 73 = molecular target: T2, ORF 73 (Human herpesvirus 8, UniProt O40947); assay: KSHV LANA DNA-binding disruption – biochemical, fluorescence polarization, cherry-picked samples, dose response (AID 504725); set-up: species or system Human gammaherpesvirus 8;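 also: fluorescence polarization of a labeled DNA duplex reporting LANA DNA binding; potency is for inhibitors that block LANA binding to the DNA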
T2 sequence (O40947 whole entry): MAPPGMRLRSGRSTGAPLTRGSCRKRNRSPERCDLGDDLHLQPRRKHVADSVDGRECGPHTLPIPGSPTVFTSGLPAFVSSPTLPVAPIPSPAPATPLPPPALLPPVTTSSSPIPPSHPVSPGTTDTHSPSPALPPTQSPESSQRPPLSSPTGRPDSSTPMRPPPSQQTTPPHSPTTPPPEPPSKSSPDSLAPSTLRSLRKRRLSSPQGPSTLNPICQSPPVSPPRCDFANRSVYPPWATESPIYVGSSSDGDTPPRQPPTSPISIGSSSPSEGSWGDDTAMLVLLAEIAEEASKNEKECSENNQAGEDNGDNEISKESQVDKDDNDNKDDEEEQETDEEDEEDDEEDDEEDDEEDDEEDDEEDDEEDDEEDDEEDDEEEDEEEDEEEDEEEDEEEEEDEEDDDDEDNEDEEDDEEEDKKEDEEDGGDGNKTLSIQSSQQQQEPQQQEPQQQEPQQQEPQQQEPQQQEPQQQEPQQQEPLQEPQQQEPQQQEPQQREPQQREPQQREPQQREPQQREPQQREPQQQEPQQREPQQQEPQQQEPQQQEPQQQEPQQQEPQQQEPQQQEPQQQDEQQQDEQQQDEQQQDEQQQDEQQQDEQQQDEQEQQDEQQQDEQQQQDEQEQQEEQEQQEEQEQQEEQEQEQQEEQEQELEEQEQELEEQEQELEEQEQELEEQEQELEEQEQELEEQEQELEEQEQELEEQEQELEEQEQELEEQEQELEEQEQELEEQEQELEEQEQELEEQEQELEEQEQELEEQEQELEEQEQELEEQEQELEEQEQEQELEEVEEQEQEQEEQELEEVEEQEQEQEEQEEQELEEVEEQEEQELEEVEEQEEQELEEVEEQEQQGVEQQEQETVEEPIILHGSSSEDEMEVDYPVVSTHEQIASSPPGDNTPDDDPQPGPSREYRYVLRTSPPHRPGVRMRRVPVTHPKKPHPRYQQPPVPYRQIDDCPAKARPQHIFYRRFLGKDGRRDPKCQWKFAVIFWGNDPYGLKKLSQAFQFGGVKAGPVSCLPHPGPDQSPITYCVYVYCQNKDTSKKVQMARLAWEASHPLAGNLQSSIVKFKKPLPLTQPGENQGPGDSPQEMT

[6] = THP-1 cell cytotoxicity, dose response, cytotoxicity control for non-replicating M. tuberculosis project (AID 489025); format: functional
BJ [7] = assay: BJ-TERT-LT-ST fibroblast viability loss – cell-based, RAS-independent, luminescence, dose response (AID 1935); format: functional; conditions: Homo sapiens;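 also: BJ fibroblasts immortalized with TERT plus LT and ST oncogenes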
BJ [8] = assay: BJ-TERT fibroblast viability loss – cell-based, RAS-independent, luminescence, dose response (AID 1933); format: functional; conditions: Homo sapiens
[9] = DRD fibroblast viability loss – cell-based, non-viral oncogenic, luminescence, dose response (AID 1934); format: functional; conditions: Homo sapiens
[10] = Luminescence Cell-Based Dose Retest to Confirm Inhibitors of Cancer Stem Cells. [Related pubchem assays (depositor defined):AID2717, AID2721]; format: functional, Homo sapiens; conditions: Homo sapiens
cells = format: functional
BJ [11] = assay: cells; format: functional, cell-based; conditions: Homo sapiens
[12] = Vero E6 cell cytotoxicity, dose response, cytotoxicity control for non-replicating M. tuberculosis project, secondary assay (AID 492998); format: functional, VeroE6; conditions: Vero C1008

Sequence of Neurotensin receptor type 1 (P30989 whole entry): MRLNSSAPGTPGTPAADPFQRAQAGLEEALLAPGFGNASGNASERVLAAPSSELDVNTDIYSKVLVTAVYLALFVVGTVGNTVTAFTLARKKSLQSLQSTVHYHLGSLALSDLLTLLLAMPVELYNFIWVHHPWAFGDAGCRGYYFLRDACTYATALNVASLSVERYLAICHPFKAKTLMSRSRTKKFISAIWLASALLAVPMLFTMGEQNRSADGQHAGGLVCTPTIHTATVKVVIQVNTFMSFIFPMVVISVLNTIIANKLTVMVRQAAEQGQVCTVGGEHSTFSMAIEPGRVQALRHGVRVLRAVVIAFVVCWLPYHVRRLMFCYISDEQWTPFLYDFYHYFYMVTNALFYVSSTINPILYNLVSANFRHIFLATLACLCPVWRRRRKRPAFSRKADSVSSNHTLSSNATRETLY
Sequence of Nonstructural protein 1 (Q194T2 whole entry): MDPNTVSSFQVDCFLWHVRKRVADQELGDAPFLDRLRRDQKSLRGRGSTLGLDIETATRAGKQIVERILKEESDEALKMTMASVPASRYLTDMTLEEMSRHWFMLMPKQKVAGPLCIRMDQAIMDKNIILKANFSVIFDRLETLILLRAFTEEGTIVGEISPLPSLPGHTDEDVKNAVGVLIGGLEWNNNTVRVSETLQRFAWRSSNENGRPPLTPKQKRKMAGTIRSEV
Sequence of Cystic fibrosis transmembrane conductance regulator/Golgi-associated PDZ and coiled-coil motif-containing protein (P13569 whole entry, other chains not shown): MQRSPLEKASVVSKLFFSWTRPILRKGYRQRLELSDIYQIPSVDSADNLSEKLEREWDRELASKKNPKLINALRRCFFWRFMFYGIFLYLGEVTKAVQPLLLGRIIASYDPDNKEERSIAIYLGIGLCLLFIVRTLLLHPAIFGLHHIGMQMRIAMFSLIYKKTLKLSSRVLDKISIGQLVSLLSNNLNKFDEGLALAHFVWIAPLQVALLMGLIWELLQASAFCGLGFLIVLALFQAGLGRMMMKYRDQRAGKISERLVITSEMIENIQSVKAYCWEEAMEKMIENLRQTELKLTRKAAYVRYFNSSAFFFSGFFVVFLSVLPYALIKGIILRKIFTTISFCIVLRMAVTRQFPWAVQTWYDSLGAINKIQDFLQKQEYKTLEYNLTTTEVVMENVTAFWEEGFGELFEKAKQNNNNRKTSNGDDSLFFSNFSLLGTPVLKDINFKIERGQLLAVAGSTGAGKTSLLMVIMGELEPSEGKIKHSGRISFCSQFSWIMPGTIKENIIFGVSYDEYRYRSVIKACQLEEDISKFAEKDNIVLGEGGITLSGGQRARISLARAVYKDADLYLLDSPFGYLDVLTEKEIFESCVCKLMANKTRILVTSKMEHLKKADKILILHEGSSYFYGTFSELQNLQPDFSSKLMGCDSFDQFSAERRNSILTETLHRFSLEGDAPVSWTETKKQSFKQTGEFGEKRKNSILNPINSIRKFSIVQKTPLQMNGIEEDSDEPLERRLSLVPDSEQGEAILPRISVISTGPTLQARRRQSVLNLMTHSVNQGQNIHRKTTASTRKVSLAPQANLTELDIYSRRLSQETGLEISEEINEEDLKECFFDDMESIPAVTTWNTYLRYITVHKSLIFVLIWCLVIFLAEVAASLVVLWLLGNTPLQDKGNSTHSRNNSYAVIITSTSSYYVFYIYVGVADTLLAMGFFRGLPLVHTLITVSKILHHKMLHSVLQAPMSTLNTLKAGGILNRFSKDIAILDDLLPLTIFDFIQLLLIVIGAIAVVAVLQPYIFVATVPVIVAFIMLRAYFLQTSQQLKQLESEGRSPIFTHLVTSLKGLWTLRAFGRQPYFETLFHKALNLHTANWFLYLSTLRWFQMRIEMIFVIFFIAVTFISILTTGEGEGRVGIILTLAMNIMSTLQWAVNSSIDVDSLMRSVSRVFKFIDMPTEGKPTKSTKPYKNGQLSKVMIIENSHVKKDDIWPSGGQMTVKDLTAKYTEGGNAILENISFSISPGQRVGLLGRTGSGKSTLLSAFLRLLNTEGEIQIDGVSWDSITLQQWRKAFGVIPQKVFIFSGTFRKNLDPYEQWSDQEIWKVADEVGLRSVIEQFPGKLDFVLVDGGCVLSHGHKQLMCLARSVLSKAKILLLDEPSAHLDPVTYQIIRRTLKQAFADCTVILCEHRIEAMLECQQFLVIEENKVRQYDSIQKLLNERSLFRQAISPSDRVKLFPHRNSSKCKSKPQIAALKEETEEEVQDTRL
Sequence of Cytochrome P450 2C9 (P11712 whole entry): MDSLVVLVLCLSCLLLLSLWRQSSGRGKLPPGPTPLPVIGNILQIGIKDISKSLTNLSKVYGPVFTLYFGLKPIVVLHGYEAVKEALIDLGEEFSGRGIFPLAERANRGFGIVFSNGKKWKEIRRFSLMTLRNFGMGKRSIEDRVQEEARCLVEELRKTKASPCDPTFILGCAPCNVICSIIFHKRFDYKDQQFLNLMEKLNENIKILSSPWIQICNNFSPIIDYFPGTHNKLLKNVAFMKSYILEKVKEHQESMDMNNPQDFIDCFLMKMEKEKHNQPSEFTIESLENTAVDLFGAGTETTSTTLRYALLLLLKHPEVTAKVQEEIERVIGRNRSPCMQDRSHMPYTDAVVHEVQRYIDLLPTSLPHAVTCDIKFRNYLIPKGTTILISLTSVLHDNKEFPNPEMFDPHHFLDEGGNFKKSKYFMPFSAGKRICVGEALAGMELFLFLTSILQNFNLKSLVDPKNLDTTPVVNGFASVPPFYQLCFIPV
Sequence of Eukaryotic translation initiation factor 4E (P63073 whole entry): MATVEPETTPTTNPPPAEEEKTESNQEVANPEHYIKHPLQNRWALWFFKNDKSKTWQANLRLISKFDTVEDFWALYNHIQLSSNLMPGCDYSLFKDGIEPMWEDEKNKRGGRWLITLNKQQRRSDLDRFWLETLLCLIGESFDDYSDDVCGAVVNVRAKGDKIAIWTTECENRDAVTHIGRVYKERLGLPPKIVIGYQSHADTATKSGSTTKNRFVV

Row | Structure (SMILES) | AC50 (Cytochrome P450 2C9) | AC50 [1] | EC50 [2] | IC50 [3] | IC50 [4] | AC50 [5] | IC50 (Nonstructural protein 1) | AC50 (HeLa) | AC50 (ORF 73) | CC50 [6] | EC50 (BJ [7]) | EC50 (BJ [8]) | EC50 [9] | AC50 [10] | IC50 (cells) | EC50 (BJ [11]) | CC50 [12]
1 | C/C(=C\c1ccc(N(C)C)cc1)[N+](=O)[O-] | 31.6 µM (inconclusive) | 13.1 µM (active) | 4.26 µM (active) | 0.653 µM (active) |  |  |  |  |  |  |  |  |  |  |  |  | 
2 | COc1ccc(OC)c(-c2c3cc(O)c(=O)cc-3oc3cc(O)c(O)cc23)c1 |  |  |  |  | 15.7 µM (active) | 13.3 µM (active) | 20.3 µM (active) | 135 µM (active) | 1.56 µM (active) |  |  |  |  |  |  |  | 
3 | O=C1NC(=O)N(CCc2ccc(F)cc2)C(=O)/C1=C/C=C/c1ccccc1 |  |  | 39.3 µM (inactive) |  |  |  |  |  |  | 5.09 µM (active) | 11.6 µM (inconclusive) | 5.32 µM (inconclusive) | 5.39 µM (inconclusive) | 1.05 µM (active) | 48.4 µM (active) | > 150 µM (not active) | 16.8 µM (active)
